Like-named read-outs stand apart in the source and are kept apart here.
Key:
A549 cells [1] = assay: Intracellular ROS assay (DCFH-DA, flow cytometry); assay type: cell-based, human; conditions: 1, 2, shikonin 20 μM for 12 h; H2O2 1 mM for 1 h
Experimental: Characterization of Necroptotic Features. Having established that necrosome formation is a determinant of 1 and 2 activity, additional studies were performed to understand the cascade of events leading from necrosome formation to cell death. Necrosomes generate abnormally high levels of mitochondrial ROS, leading to ATP depletion and eventual degradation of the mitochondrial membrane potential. With this fact in mind, intracellular ROS production was quantified by flow cytometry using 6-carboxy-2′,7′-dichlorodihydrofluorescein diacetate (DCFH-DA), a well-established ROS indicator.
In FIG. 2: (A) Representative histograms displaying the green fluorescence emitted by DCFH-DA-stained A549 cells (i) and A549 cells treated with 1(20 μM for 12 h) (iii) or 1 (20 μM for 12 h) with nectrostatin-1 (60 μM for 12 h) (ii). (B) Representative histograms displaying the green fluorescence emitted by DCFH-DA-stained A549 cells (i) and A549 cells treated with 2 (20 μM for 12 h) (iii) or 2 (20 μM for 12 h) with nectrostatin-1 (60 μM for 12 h) (ii). (C) Representative histograms displaying the green fluorescence emitted by DCFH-DA-stained A549 cells (i) and A549 cells treated withH2O2 (1mM for 1 h) (iii). (D) Representative histograms displaying the green fluorescence emitted by DCFH-DA-stained A549 cells (i) and A549 cells treated with shikonin (20 μM for 12 h) (iii).
Intracellular ROS Assay. Untreated and treated A549 cells (1.5×10^6 cells/well) grown in six-well plates were incubated with 6-carboxy-2′,7′-dichlorodihydrofluorescein diacetate (20 μM) for 30 min. The cells were then washed with PBS (1 mL x 3), harvested, and analyzed by using a FACSCalibur-HTS flow cytometer (BD Biosciences) (20 000 events per sample were acquired). The FL1 channel was used to assess intracellular ROS levels. Cell populations were analyzed using the FlowJo software (Tree Star).

[2] = tested on: MCF-7 (breast adenocarcinoma); assay: MTT cytotoxicity assay, MCF-7 cells; assay type: cell-based, human; conditions: Table 2; cisplatin-resistant cell line; 72 h exposure
[3] = tested on: HT-29 (colorectal adenocarcinoma); assay: MTT cytotoxicity assay, HT-29 cells; assay type: cell-based, human; conditions: Table 2; cisplatin-resistant cell line; 72 h exposure
Experimental: Cytotoxicity MTT Assay. […] Cells (2×10^3 cells/well) were seeded in a 96-well plate. […] The final concentration of DMSO in each well was 0.5%, and this amount was also present in the untreated control. After 72 h, the medium was removed, 200 μL of a 0.4 mg/mL solution of MTT in DMEM, RPMI, or McCoy's 5A was added, and the plate was incubated for an additional 1-2 h. The DMEM/MTT, RPMI/MTT, or McCoy's 5A/MTT mixture was aspirated, and 200 μL of DMSO was added to dissolve the resulting purple formazan crystals. The absorbance of the solution wells was read at 550 nm. Absorbance values were normalized to DMSO-containing control wells and plotted as the concentration of test compound versus % cell viability. IC50 values were interpolated from the resulting dose-dependent curves. The reported IC50 values are the average from at least three independent experiments, each of which consisted of six replicates per concentration level.

[4] = tested on: PC-3 (prostate adenocarcinoma); assay: MTT cytotoxicity assay, PC-3 cells; assay type: cell-based, human; conditions: Table 2; cisplatin-resistant cell line; 72 h exposure
MRC-5 [5] = assay: MTT cytotoxicity assay, MRC-5 normal lung fibroblasts; assay type: cell-based, human; conditions: Table A; average of three independent determinations; read-out: IC50 MRC5 (lung normal)
Experimental: (§1) In vitro toxicity of the rhenium (v) oxo complexes, 1 and 2 towards a panel of human cell lines was determined using the colorimetic MTT [[3-(4,5-dimethylithiazol-2-yl)-2,5-diphenyltetrazolium bromide] assay.
(§2) The in vitro effect of rhenium(V) oxo complexes 1 and 2 toward a panel of human cell lines was determined by the colorimetric MTT [3-(4,5-dimethylthiazol-2-yl)-2,5-diphenyltetrazolium bromide] assay. […] The IC50 values, or concentration required to induce 50% cell death, were derived from dose—response curves and are summarized in Table 1.
(§3) Cells (2×10^3 cells/well) were seeded in a 96-well plate. […] 1 and 2 were prepared as 10 mM solutions in DMSO and diluted using media. The final concentration of DMSO in each well was 0.5%, and this amount was also present in the untreated control. After 72 h, the medium was removed, 200 μL of a 0.4 mg/mL solution of MTT in DMEM, RPMI, or McCoy's 5A was added, and the plate was incubated for an additional 1-2 h. The DMEM/MTT, RPMI/MTT, or McCoy's 5A/MTT mixture was aspirated, and 200 μL of DMSO was added to dissolve the resulting purple formazan crystals. The absorbance of the solution wells was read at 550 nm. Absorbance values were normalized to DMSO-containing control wells and plotted as the concentration of test compound versus % cell viability. IC50 values were interpolated from the resulting dose-dependent curves. The reported IC50 values are the average from at least three independent experiments, each of which consisted of six replicates per concentration level.

U2OS [6] = assay: MTT cytotoxicity assay, U2OS cells; assay type: cell-based, human; conditions: Table A; average of three independent determinations; read-out: IC50 U2OS (bone)
U2OS [7] = conditions: Table 1; 72 h exposure; value taken from ref 4S; read-out: IC50 U2OS bone osteosarcoma; cited from earlier work
NTERA-2 = assay: MTT cytotoxicity assay, NTERA-2 cells; assay type: cell-based, human; conditions: Table 1; 72 h exposure; ± standard deviation; read-out: IC50 NTERA-2 testis carcinoma
[8] = tested on: cisplatin-resistant ovarian carcinoma cells (A2780CP70); assay: MTT cytotoxicity assay, A2780CP70 cells; assay type: cell-based, human
[9] = tested on: cisplatin-sensitive cells (A2780); conditions: Table 1; 72 h exposure; value taken from ref 4S; read-out: IC50 A2780 ovarian carcinoma; cited from earlier work
[10] = tested on: cisplatin-sensitive cells (A2780); assay: MTT cytotoxicity assay, A2780 cells; assay type: cell-based, human; conditions: Table A; average of three independent determinations; read-out: IC50 A2780 (ovarian)
MRC-5 [11] = conditions: Table 1; 72 h exposure; value taken from ref 4S; read-out: IC50 MRC-5 lung fibroblast; cited from earlier work
[12] = tested on: MDA-MB-231 (breast adenocarcinoma); assay: MTT cytotoxicity assay, MDA-MB-231 cells; assay type: cell-based, human; conditions: Table 2; cisplatin-resistant cell line; 72 h exposure; read-out: IC50 MDA-M8-231 breast adenocarcinoma
A549 cells [13] = assay: MTT cytotoxicity assay, A549 cells; assay type: cell-based, human
Experimental: as §1, §2, §3

confluent A549 cells = assay: MTT cytotoxicity assay, confluent A549 cells; assay type: cell-based, human; conditions: Table 2; confluent cells; 72 h exposure; read-out: IC50 A549 (confluent) lung carcinoma
[14] = tested on: DU 145 (prostate carcinoma); assay: MTT cytotoxicity assay, DU 145 cells; assay type: cell-based, human; conditions: Table 2; cisplatin-resistant cell line; 72 h exposure; read-out: IC50 DU 14S prostate carcinoma
[15] = tested on: HeLa cervical adenocarcinoma cells; assay: MTT cytotoxicity assay, HeLa cells; assay type: cell-based, human

Structure (SMILES)	intracellular ROS versus untreated control cells (A549 cells [1])	IC50 [2] [µM]	IC50 [3] [µM]	IC50 [4] [µM]	IC50 (MRC-5 [5]) [µM]	IC50 (U2OS [6]) [µM]	IC50 (U2OS [7]) [µM]	IC50 (NTERA-2) [nM]	IC50 ([8]; Table 1, 72 h exposure, ± standard deviation, read-out: IC50 A2780CP70 ovarian carcinoma) [µM]	IC50 ([8]; Table A, average of three independent determinations, read-out: IC50 A280CP70 (ovarian)) [µM]	IC50 [9] [nM]	IC50 [10] [nM]	IC50 (MRC-5 [11]) [µM]	IC50 [12] [µM]	IC50 (A549 cells [13]; Table 1, 72 h exposure, ± standard deviation, read-out: IC50 A549 lung carcinoma) [nM]	IC50 (A549 cells [13]; Table A, average of three independent determinations, read-out: IC50 A549 (lung)) [nM]	IC50 (confluent A549 cells) [µM]	IC50 [14] [µM]	IC50 ([15]; Table 1, 72 h exposure, ± standard deviation, read-out: IC50 HeLa cervical adenocarcinoma) [µM]	IC50 ([15]; Table A, average of three independent determinations, read-out: IC50 HeLa (cervical)) [µM]
OO [Compound H2O2, H2O2, reference compound]	significantly higher levels of measurable ROS	–	–	–	–	–	–	–	–	–	–	–	–	–	–	–	–	–	–	–
N.N.[Cl][Pt][Cl] [cisplatin, reference compound]	–	9.74 ± 0.537	29.6 ± 1.33	10.2 ± 0.919	11.1 ± 1.33	4.6 ± 0.6	4.6 ± 0.6	385 ± 49	8.42 ± 0.205	8.42 ± 0.205	700 ± 200	1410 ± 37	5.3 ± 0.6	43.6 ± 7.07	3230 ± 467	2740 ± 6	9.42 ± 1.94	> 100	4.1 ± 0.113	4.1 ± 0.011

Source: US20150299233A1, “COMPOSITIONS AND METHODS COMPRISING RHENIUM FOR THE TREATMENT OF CANCERS” (Massachusetts Institute of Technology, priority 2014, published 2015)
